Results published in PMC8146789, “20-Hydroxyecdysone, from Plant Extracts to Clinical Use: Therapeutic Potential for the Treatment of Neuromuscular, Cardio-Metabolic and Respiratory Diseases” (Biomedicines, 2021).
Where two headings read alike, the source gives them in different places.

Experiments:
[1] = parameters: method as in ref [174] = [174]; 174. Thole S.W. The Metabolic Syndrome: The Effects of β-ecdysone on Selected Body Parameters and Serum Lipids on the Metabolic Syndrome Ph.D. Thesis University of Göttingen Göttingen, Germany 2018; conditions: ref [174], cited from earlier work
C2C12 cells = system: C2C12 cells; parameters: method as in ref [103] = [103]; 103. Dilda P. Foucault A.S. Serova M. On S. Raynal S. Veillet S. Dioh W. Lafont R. BIO101, a drug candidate targeting Mas receptor for the treatment of age-reated muscle degeneration. From molecular t; conditions: C2C12 myotubes, ref [103], cited from earlier work
[2] = cited from earlier work; for dose dependence of plasma levels: increasing doses; for AUC0-t / Cmax / tmax: fasted; for AUC0-t / Cmax: n = 6, (SEM); for tmax: n = 6, (range)
[3] = parameters: method as in doi:10.1055/s-0032-1320426; conditions: ref [171],[172], cited from earlier work
Erβ [4] = system: Erβ; parameters: method as in PMID 18220764; conditions: cited from earlier work
Lambliasis = system: Lambliasis; parameters: method as in PMID 20614521; conditions: 5 mg 4×/day, 10 days; ref [168]; cited from earlier work
[5] = parameters: method as in doi:10.1016/0924-977X(96)83007-0; conditions: 7.5–10 mg/day, 1 month; ref [165]; cited from earlier work
[6] = repeated dose toxicity study (26-week); conditions: rat, in vivo; rats, 26-week repeated dose; Biophytis, unpublished data; read-out: No Observed Adverse Effect Level (NOAEL)
Description: (§1) More recently, a purified to pharmaceutical grade 20E (≥97% 20E purity) was used as a drug candidate in preclinical regulatory studies including safety pharmacology, genotoxicity and repeated toxicology in rodents (rats) and non-rodents (dog).

ERα [7] = system: ERα; parameters: method as in PMID 18220764; conditions: cited from earlier work
bullfrogs = conditions: up to 600 mg/kg in the lymph sinus, ref [121]; cited from earlier work
[8] = alcohols; cited from earlier work
[9] = genotoxicity (preclinical regulatory studies); conditions: Biophytis, unpublished data
Description: as §1

rabbits = conditions: up to 100 mg/kg, ref [121]; cited from earlier work
[10] = system: epididymal adipose tissue; parameters: method as in PMID 21869758; conditions: mice, high-fat diet, 20E 50 mg/kg/day; ref [59]; cited from earlier work
ovariectomized rats = system: ovariectomized rats; parameters: method as in Seidlova-Wuttke et al. [57],[94]; conditions: up to 500 mg/kg daily for 3 months, ref Seidlova-Wuttke et al. [57],[94]; cited from earlier work
Erβ [11] = system: Erβ; parameters: method as in PMID 24974955; conditions: ref [54]; cited from earlier work
Hymenolepiasis = system: Hymenolepiasis; parameters: method as in PMID 22536744; conditions: 5 mg 3×/day, 2 weeks; ref [169]; cited from earlier work
[12] = parameters: method as in PMID 4650153; conditions: mice, oral; ref [122]; cited from earlier work
ERα [13] = system: ERα; parameters: method as in PMID 24974955; conditions: ref [54]; cited from earlier work
[14] = parameters: method as in PMID 15559639; conditions: hepatitis B, 5 mg b.i.d., 30 days; ref [159]; cited from earlier work
[15] = repeated dose toxicity study (39-week); conditions: dog, in vivo; dogs, 39-week repeated dose; Biophytis, unpublished data; read-out: No Observed Adverse Effect Level (NOAEL)
Description: as §1

[16] = 30 days, ref [158], cited from earlier work
[17] = parameters: method as in doi:10.1007/BF02234932; conditions: 15 mg/day, 10 days; ref [166]; cited from earlier work
[18] = parameters: method as in doi:10.1055/s-0032-1320426; conditions: ovariectomized rats, p < 0.05; ref [171],[172]; cited from earlier work
[19] = parameters: method as in ref [177] = [177]; 177. Dustmukhamedova D.K.H. Kamilovz A.T. The characteristic of energy metabolism disorders and its correction in children with celiac disease Am. J. Med. Medic. Sci. 2020 10 780 783; conditions: children 3–14, 2.5 mg/kg/day, 14 days; ref [177]; cited from earlier work
[20] = patients with metabolic syndrome
[21] = single oral 100 mg, ref [136],[137]
[22] = single oral 350 mg, ref [136],[137]
[23] = single oral 700 mg, ref [136],[137]
[24] = single oral 1400 mg, ref [136],[137]
[25] = slightly overweight persons, 200 mg daily

Q: For CC(C)(O)CC[C@@H](O)[C@](C)(O)[C@H]1CC[C@@]2(O)C3=CC(=O)[C@@H]4C[C@@H](O)[C@@H](O)C[C@]4(C)[C@H]3CC[C@]12C [20E, 2β,3β,14α,20R,22R,25-hexahydroxy-5β-cholest-7-en-6-one], which “output of metabolic syndrome study” value ([1]; 40 or 90 mg/day, 3–6–9 months) is on record?
A: Reductions in body mass, proportion of body fat, waist cicumference and hsCRP, retention of muscle mass

Q: And the “body parameters versus control group” value [1, 20]?
A: continuous and significant loss of body mass, fat percentage, and waist diameter

Q: What about the “effect on serum lipids” value [1, 20] of the same compound?
A: no significant effect on serum lipids

Q: What about the hsCRP level [1, 20] of the same compound?
A: marked reduction

Q: And the “optimal concentration for anabolic effect on protein synthesis” value (C2C12 cells; 0.01–10 μM tested)?
A: 1 µM

Q: What about the “protein synthesis stimulatory activity” value (C2C12 cells; 20E 0.01–10 μM, IGF-1 100 ng/mL) of the same compound?
A: equally active as insulin-like growth factor-1 (IGF-1)

Q: What about the “safety profile, adverse events” value ([2]; humans, SAD 100 to 1400 mg, MAD up to 450 mg twice a day for 14 days, ref [180]) of the same compound?
A: no serious adverse events during SAD and MAD

Q: What about the “dose dependence of plasma levels” value ([2]; humans, oral, ref [136],[137]) of the same compound?
A: dose-related and also apparently saturable

Q: And the “dose dependence of plasma levels” value ([2]; humans, oral, ref [136],[137], listed as BIO101)?
A: increased less that dose-proportionally

Q: What about the bioavailability ([2]; humans, oral, ref [180]) of the same compound?
A: rather low

Q: What about the “share of the urinary excretion within 4 h” value ([2]; humans, single dose, ref [136],[137]) of the same compound?
A: half of this was excreted within 4 h

Q: And the “administered 20E excreted in the urine” value ([2]; humans, within 12 h of a single dose, ref [136],[137])?
A: About 2%

Q: What about the “serum biomarkers of muscular catabolism (myoglobin, CK-MB)” value ([2]; older adults, after 14 days of administration (MAD), ref [180]) of the same compound?
A: reduced in subjects administered the highest dose

Q: And the AUC0-t [2, 21]?
A: 767 (31.1) ng·h/mL

Q: And the Cmax [2, 21]?
A: 141 (16.6) ng/mL

Q: What about the tmax [2, 21] of the same compound?
A: 2.03 (1.00–3.02) h

Q: And the AUC0-t [2, 22]?
A: 1924 (40.1) ng·h/mL

Q: What about the Cmax [2, 22] of the same compound?
A: 317 (37.9) ng/mL

Q: And the AUC0-t [2, 23]?
A: 2578 (22.9) ng·h/mL

Q: What about the Cmax [2, 23] of the same compound?
A: 399 (24.7) ng/mL

Q: And the tmax [2, 23]?
A: 3.00 (2.00–4.02) h

Q: What about the AUC0-t [2, 24] of the same compound?
A: 4148 (15.9) ng·h/mL

Q: And the Cmax [2, 24]?
A: 710 (20.2) ng/mL

Q: And the tmax [2, 24]?
A: 3.50 (2.00–4.02) h

Q: And the “output of trial in menopause disorders” value ([3]; overweight, 100 or 200 mg/day, 3 months)?
A: Prevention of metabolic syndrome and osteoporosis, reduction in body weight, reduction in plasma cholesterol and CRP; proposed for hormone replacement therapy

Q: And the “increase of HDL” value [3, 25]?
A: 10.8%

Q: What about the “reduction of LDL” value [3, 25] of the same compound?
A: 13.9%

Q: What about the “reduction of serum cholesterol” value [3, 25] of the same compound?
A: 10.2%

Q: What about the reduction of triglycerides [3, 25] of the same compound?
A: 31.1%

Q: And the “reduction of waist circumference” value [3, 25]?
A: 2.7 cm

Q: And the “binding to nuclear receptor” value (Erβ [4])?
A: negative

Q: What about the parasite elimination (Lambliasis) of the same compound?
A: Therapy eliminated most parasites within 10 days

Q: And the “patients with improvement of libido and sexual activity” value [5]?
A: Improvement of libido and sexual activity in 75% of patients

Q: And the NOAEL at 26 week [6]?
A: 1000 mg/kg

Q: What about the “binding to nuclear receptor” value (ERα [7]) of the same compound?
A: negative

Q: What about the effects after administration (bullfrogs) of the same compound?
A: no effects were seen

Q: What about the solubility [8] of the same compound?
A: highly soluble in alcohols

Q: And the genotoxic effects [9]?
A: no genotoxic effects

Q: What about the effects after administration (rabbits) of the same compound?
A: no effects were seen

Q: And the adipocyte diameter [10]?
A: retains the median adipocyte diameter close to that in mice fed a low-fat diet

Q: And the “mass of epididymal fat pads” value [10]?
A: counteracts both the increase in the mass of the fat pads

Q: And the detrimental effects (ovariectomized rats)?
A: no stated detrimental effects

Q: And the “activation of ERE reporter gene” value (Erβ [11])?
A: could be activated dose dependently

Q: What about the parasitological efficacy (Hymenolepiasis) of the same compound?
A: 36.4%

Q: And the symptoms (Hymenolepiasis)?
A: Reduction in symptoms

Q: What about the bioavailability [12] of the same compound?
A: low

Q: What about the “radioactivity crossing the intestinal tract, of that administered” value [12] of the same compound?
A: < 2%

Q: And the route of elimination [12]?
A: essentially fecal

Q: What about the “activation of ERE reporter gene” value (ERα [13]) of the same compound?
A: could be activated dose dependently

Q: And the liver state [14]?
A: In case of hepatitis B, improvement of liver state

Q: What about the NOAEL at 39 week [15] of the same compound?
A: 1000 mg/kg

Q: What about the sexual function output ([16]; 5 mg 3×/day, age 40–60 M) of the same compound?
A: Improvement of sexual function during recovery from myocardial infarction

Q: And the sexual function output ([16]; 5 mg, 2×/day)?
A: Improved sperm quality and copulative function in patients with disturbed spermatogenesis as a complication of urologic diseases

Q: What about the “kidney function and microcirculation” value [17] of the same compound?
A: Improvement of kidney function and of microcirculation

Q: And the “abdominal, bone marrow and joint fat” value [18]?
A: reduced the amount of abdominal, bone marrow and joint fat

Q: And the “output of celiac disease study” value [19]?
A: Reduction in symptoms Improvement of energy metabolism
